# According to patent US20150284674A1, “CAMPYLOBACTER BACTERIA AND DETECTION” (priority 2012, published 2015):
# Where “and” joins values, the source holds several entries; their conditions need not be identical. Equal entries are not always repeated. Entries after “also recorded” stand apart in the source; their conditions may differ.
# Assays:
# [1] = tested on: Campylobacter novel strains; test: Antimicrobial susceptibility testing by agar dilution method (MIC); settings: for Distribution (%) of MIC (μg/ml) 0.03: % of novel strains with MIC 0.03 μg/ml; for Distribution (%) of MIC (μg/ml) 0.06: % of novel strains with MIC 0.06 μg/ml; for Distribution (%) of MIC (μg/ml) 0.13: % of novel strains with MIC 0.13 μg/ml; for Distribution (%) of MIC (μg/ml) 1: % of novel strains with MIC 1 μg/ml; for Distribution (%) of MIC (μg/ml) 2: % of novel strains with MIC 2 μg/ml; for Distribution (%) of MIC (μg/ml) 4: % of novel strains with MIC 4 μg/ml; for Distribution (%) of MIC (μg/ml) 8: % of novel strains with MIC 8 μg/ml; for Distribution (%) of MIC (μg/ml) 32: % of novel strains with MIC 32 μg/ml; for Distribution (%) of MIC (μg/ml) 64: % of novel strains with MIC 64 μg/ml; for Distribution (%) of MIC (μg/ml) 0.25: % of novel strains with MIC 0.25 μg/ml;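 on all read-outs here: agar dilution MIC on HBA, used in place of the BSAC-recommended Iso-sensitest agar, across a panel of 14 antimicrobials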
# Protocol: Antimicrobial susceptibility testing was performed using the agar dilution method for the Campylobacter novel strains against 14 antimicrobials. […] As the strains were unable to grow on the Iso-sensitest agar (ISA) recommended by the BSAC guidelines, HBA (Table 1) was used as an alternative media.
# [2] = tested on: novel campylobacter isolates; test: Disc diffusion susceptibility to nalidixic acid and cephalothin (30 μg discs); format: cell-based; settings: for Susceptibility to (30 μg disc): disc diffusion; on Susceptibility to (30 μg disc): key: S, susceptible; R, resistant
# C. avium sp. Nov = settings: taxon 1: C. avium sp. Nov; cited from earlier work
# C. canadensis = settings: taxon 2: C. canadensis; cited from earlier work
# C. coli = settings: taxon 3: C. coli; cited from earlier work
# C. concisus = settings: taxon 4: C. concisus; cited from earlier work
# C. cuniculurom = settings: taxon 5: C. cuniculurom; cited from earlier work
# C. curvus = settings: taxon 6: C. curvus; cited from earlier work
# C. fetus subsp. fetus = settings: taxon 7: C. fetus subsp. fetus; cited from earlier work
# [3] = tested on: C. fetus subsp. venerealis; settings: taxon 8: C. fetus subsp. venerealis; cited from earlier work
# C. gracilis = settings: taxon 9: C. gracilis; cited from earlier work
# C. helveticus = settings: taxon 10: C. helveticus; cited from earlier work
# C. hominus = settings: taxon 11: C. hominus; cited from earlier work
# [4] = tested on: C. hyointestinalis subsp. hyointestinalis; settings: taxon 12: C. hyointestinalis subsp. hyointestinalis; cited from earlier work
# [5] = tested on: C. hyointestinalis subsp. lawsonii; settings: taxon 13: C. hyointestinalis subsp. lawsonii; cited from earlier work
# C. insulaenigrae = settings: taxon 14: C. insulaenigrae; cited from earlier work
# C. jejuni subsp. Doylei = settings: taxon 15: C. jejuni subsp. Doylei; cited from earlier work
# C. jejuni subsp. Jejuni = settings: taxon 16: C. jejuni subsp. Jejuni; cited from earlier work
# C. lari = settings: taxon 18: C. lari; cited from earlier work
# C. mucosalis = settings: taxon 19: C. mucosalis; cited from earlier work
# C. rectus = settings: taxon 20: C. rectus; cited from earlier work
# C. showae = settings: taxon 21: C. showae; cited from earlier work
# C. sputorum = settings: taxon 22: C. sputorum; cited from earlier work
# C. upsaliensis = settings: taxon 23: C. upsaliensis; cited from earlier work
# [6] = Campylobacter novel strains, agar dilution on HBA
molecule,measurement,setting,value
Gentamycin,Distribution (%) of MIC (μg/ml) 0.03,[1]; agar dilution on HBA,0%
same,Distribution (%) of MIC (μg/ml) 0.06,[1]; agar dilution on HBA,0%
same,Distribution (%) of MIC (μg/ml) 0.13,[1]; agar dilution on HBA,0%
same,Distribution (%) of MIC (μg/ml) 1,[1]; agar dilution on HBA,0%
same,Distribution (%) of MIC (μg/ml) 2,[1]; agar dilution on HBA,0%
same,Distribution (%) of MIC (μg/ml) 4,[1]; agar dilution on HBA,0%
same,Distribution (%) of MIC (μg/ml) 8,[1]; agar dilution on HBA,0%
same,Distribution (%) of MIC (μg/ml) 32,[1]; agar dilution on HBA,0%
same,Distribution (%) of MIC (μg/ml) 64,[1]; agar dilution on HBA,0%
same,MIC50,[1]; [6],0.5 µg/mL and 0.50 µg/mL
same,MIC90,[1]; [6],0.5 µg/mL and 0.50 µg/mL
Colistin,Distribution (%) of MIC (μg/ml) 0.03,[1]; agar dilution on HBA,0%
same,Distribution (%) of MIC (μg/ml) 0.06,[1]; agar dilution on HBA,0%
same,Distribution (%) of MIC (μg/ml) 0.13,[1]; agar dilution on HBA,0%
same,Distribution (%) of MIC (μg/ml) 0.25,[1]; agar dilution on HBA,0%
same,Distribution (%) of MIC (μg/ml) 0.50,"[1]; % of novel strains with MIC 0.50 μg/ml, agar dilution on HBA",0%
same,Distribution (%) of MIC (μg/ml) 1,[1]; agar dilution on HBA,0%
same,Distribution (%) of MIC (μg/ml) 2,[1]; agar dilution on HBA,0%
same,Distribution (%) of MIC (μg/ml) 4,[1]; agar dilution on HBA,8.70%
same,Distribution (%) of MIC (μg/ml) 8,[1]; agar dilution on HBA,73.91%
same,Distribution (%) of MIC (μg/ml) 32,[1]; agar dilution on HBA,13.04%
same,Distribution (%) of MIC (μg/ml) 64,[1]; agar dilution on HBA,0%
same,MIC50,[1]; [6],8 µg/mL
same,MIC90,[1]; [6],32 µg/mL
CC(=O)OCC1=C(C(=O)O)N2C(=O)[C@@H](NC(=O)Cc3cccs3)[C@H]2SC1 [Cephalothin],"susceptibility / resistance of the novel Campylobacter strains, in words","[2]; disc diffusion tests, 30 μg disc, novel Campylobacter strains overall",variable resistance; also recorded: some were sensitive
same,Susceptibility to (30 μg disc),[2]; strain Farm 1 2009/1,R
same,Susceptibility to (30 μg disc),[2]; strain Farm 1 2009/2,R
same,Susceptibility to (30 μg disc),[2]; strain Farm 1 2011/1,R
same,Susceptibility to (30 μg disc),[2]; strain Farm 1 2011/2,R
same,Susceptibility to (30 μg disc),[2]; strain Farm 1 2011/3,R
same,Susceptibility to (30 μg disc),[2]; strain Farm 1 2011/4,R
same,Susceptibility to (30 μg disc),[2]; strain Farm 1 2011/5,R
same,Susceptibility to (30 μg disc),[2]; strain Farm 1 2011/6,R
same,Susceptibility to (30 μg disc),[2]; strain Farm 2 2011/1,S
same,Susceptibility to (30 μg disc),[2]; strain Farm 2 2011/2,S
same,Susceptibility to (30 μg disc),[2]; strain Farm 2 2011/3,S
same,Susceptibility to (30 μg disc),[2]; strain Farm 2 2011/4,S
same,Susceptibility to (30 μg disc),[2]; strain Farm 3 2011/1,S
same,Susceptibility to (30 μg disc),[2]; strain Farm 3 2011/2,S
same,Susceptibility to (30 μg disc),[2]; strain Farm 3 2011/3,S
same,Susceptibility to (30 μg disc),[2]; strain Farm 4 2011/1,S
same,Susceptibility to (30 μg disc),[2]; strain Farm 4 2011/2,S
same,Susceptibility to (30 μg disc),[2]; strain Farm 4 2011/3,S
same,resistance (share of strains positive),[2]; taxon A: Campylobacter novel (n=23),"V (V, 26-74% of strains positive)"
same,resistance (share of strains positive),C. avium sp. Nov,"+ (+, 90-100% of strains positive)"
same,resistance (share of strains positive),C. canadensis,"− (−, 0-10% of strains positive)"
same,resistance (share of strains positive),C. coli,"+ (+, 90-100% of strains positive)"
same,resistance (share of strains positive),C. concisus,"− (−, 0-10% of strains positive)"
same,resistance (share of strains positive),C. cuniculurom,"(+) ((+), 75-89% strains positive)"
same,resistance (share of strains positive),C. curvus,"− (−, 0-10% of strains positive)"
same,resistance (share of strains positive),C. fetus subsp. fetus,"− (−, 0-10% of strains positive)"
same,resistance (share of strains positive),[3],"− (−, 0-10% of strains positive)"
same,resistance (share of strains positive),C. gracilis,"− (−, 0-10% of strains positive)"
same,resistance (share of strains positive),C. helveticus,"− (−, 0-10% of strains positive)"
same,resistance (share of strains positive),C. hominus,"− (−, 0-10% of strains positive)"
same,resistance (share of strains positive),[4],"(−) ((−), 11-25% of strains positive)"
same,resistance (share of strains positive),[5],"− (−, 0-10% of strains positive)"
same,resistance (share of strains positive),C. insulaenigrae,"+ (+, 90-100% of strains positive)"
same,resistance (share of strains positive),C. jejuni subsp. Doylei,"− (−, 0-10% of strains positive)"
same,resistance (share of strains positive),C. jejuni subsp. Jejuni,"+ (+, 90-100% of strains positive)"
same,resistance (share of strains positive),C. lari,"+ (+, 90-100% of strains positive)"
same,resistance (share of strains positive),C. mucosalis,"− (−, 0-10% of strains positive)"
same,resistance (share of strains positive),C. rectus,"− (−, 0-10% of strains positive)"
same,resistance (share of strains positive),C. showae,"− (−, 0-10% of strains positive)"
same,resistance (share of strains positive),C. sputorum,"− (−, 0-10% of strains positive)"
same,resistance (share of strains positive),C. upsaliensis,"(−) ((−), 11-25% of strains positive)"
same,MIC50,[1]; Campylobacter,32 µg/mL
same,MIC90,[1]; Campylobacter,32 µg/mL
C=C[C@]1(C)C[C@@H](OC(=O)CSCCN(CC)CC)[C@]2(C)[C@H](C)CC[C@]3(CCC(=O)[C@H]32)[C@@H](C)[C@@H]1O [Tiamulin],MIC50,[1]; Campylobacter,2 µg/mL
same,MIC90,[1]; Campylobacter,2 µg/mL
O=C(O)c1cn(C2CC2)c2cc(N3CCNCC3)c(F)cc2c1=O [Ciprofloxacin],MIC50,[1]; Campylobacter,0.06 µg/mL
same,MIC90,[1]; Campylobacter,0.06 µg/mL
"CC[C@H]1OC(=O)[C@H](C)[C@@H](O[C@H]2C[C@@](C)(OC)[C@@H](O)[C@H](C)O2)[C@H](C)[C@@H](O[C@@H]2O[C@H](C)C[C@H](N(C)C)[C@H]2O)[C@](C)(O)C[C@@H](C)C(=O)[C@H](C)[C@@H](O)[C@]1(C)O [Ertythromycin, Erythromycin]",MIC50,[1]; Campylobacter,1 µg/mL
same,MIC90,[1]; Campylobacter,2 µg/mL
NC[C@H]1O[C@H](O[C@H]2[C@H](O)[C@@H](O[C@H]3O[C@H](CO)[C@@H](O)[C@H](N)[C@H]3O)[C@H](N)C[C@@H]2N)[C@H](O)[C@@H](O)[C@@H]1O [Kanamycin],MIC50,[1]; Campylobacter,4 µg/mL
same,MIC90,[1]; Campylobacter,4 µg/mL
O=C(N[C@H](CO)[C@H](O)c1ccc([N+](=O)[O-])cc1)C(Cl)Cl [Chloramphenicol],MIC50,[1]; Campylobacter,4 µg/mL
same,MIC90,[1]; Campylobacter,8 µg/mL
CN(C)[C@@H]1C(O)=C(C(N)=O)C(=O)[C@@]2(O)C(O)=C3C(=O)c4c(O)cccc4[C@@](C)(O)[C@H]3C[C@@H]12 [Tetracycline],MIC50,[1]; Campylobacter,1 µg/mL
same,MIC90,[1]; Campylobacter,64 µg/mL
[H]/N=C(/N)N[C@H]1[C@H](O)[C@@H](O)[C@H](O[C@@H]2O[C@@H](C)[C@](O)(C=O)[C@H]2O[C@@H]2O[C@@H](CO)[C@H](O)[C@@H](O)[C@@H]2NC)[C@@H](N/C(N)=N\[H])[C@@H]1O [Streptomycin],MIC50,[1]; Campylobacter,1 µg/mL
same,MIC90,[1]; Campylobacter,1 µg/mL
CCN1CCN(C(=O)N[C@@H](C(=O)N[C@@H]2C(=O)N3C(C(=O)O)=C(CSc4nnnn4C)CS[C@H]23)c2ccc(O)cc2)C(=O)C1=O [Cefoperazone],MIC50,[1]; Campylobacter,64 µg/mL
same,MIC90,[1]; Campylobacter,64 µg/mL
CC1(C)S[C@@H]2[C@H](NC(=O)[C@H](N)c3ccccc3)C(=O)N2[C@H]1C(=O)O [Ampicillin],MIC50,[1]; Campylobacter,1 µg/mL
same,MIC90,[1]; Campylobacter,2 µg/mL
Polymyxin B,Distribution (%) of MIC (μg/ml) 0.03,[1]; agar dilution on HBA,0%
same,Distribution (%) of MIC (μg/ml) 0.06,[1]; agar dilution on HBA,0%
same,Distribution (%) of MIC (μg/ml) 0.13,[1]; agar dilution on HBA,0%
same,Distribution (%) of MIC (μg/ml) 0.25,[1]; agar dilution on HBA,0%
same,Distribution (%) of MIC (μg/ml) 1,[1]; agar dilution on HBA,0%
same,Distribution (%) of MIC (μg/ml) 2,[1]; agar dilution on HBA,0%
same,Distribution (%) of MIC (μg/ml) 4,[1]; agar dilution on HBA,21.74%
same,Distribution (%) of MIC (μg/ml) 8,[1]; agar dilution on HBA,56.52%
same,Distribution (%) of MIC (μg/ml) 32,[1]; agar dilution on HBA,8.70%
same,Distribution (%) of MIC (μg/ml) 64,[1]; agar dilution on HBA,0%
same,MIC50,[1]; [6],8 µg/mL
same,MIC90,[1]; [6],16 µg/mL
